Data reported in paper PMC6792352, “Limited Chemical Structural Diversity Found to Modulate Thyroid Hormone Receptor in the Tox21 Chemical Library” (Environmental Health Perspectives, 2019).
Where a name gives a salt, the structure may show the parent alone.

assay: in vitro; settings: rat, gh3-tre-luc cells, AC50 (uM) modified / 1000

Row | SMILES | CC50 at 24 h
1 | c1ccc(CCNc2nc(-c3ccccc3)cs2)cc1 [Fanetizole] | > 50 µM
2 | C=CCCC=C [1,5-Hexadiene] | > 90 µM
3 | C[C@H](O)C(=O)Nc1c(I)c(C(=O)NC(CO)CO)c(I)c(C(=O)NC(CO)CO)c1I [Iopamidol] | > 20 µM
4 | Cc1cc(N)n(-c2ccccc2)n1 [3-Methyl-1-phenyl-1H-pyrazol-5-amine] | > 90 µM
5 | CN(C)c1ccc(N(C)C)cc1 [N,N,N',N'-Tetramethyl-p-phenylenediamine] | 58.6 µM
6 | Cc1ccc(Cl)c(Nc2ccccc2C(=O)O)c1Cl [Meclofenamate sodium] | > 50 µM
7 | Oc1ccccc1Cl [2-Chlorophenol] | > 90 µM
8 | CCCCS [1-Butanethiol] | > 90 µM
9 | Cc1nnc(NS(=O)(=O)c2ccc(N)cc2)s1 [Sulfamethizole] | > 50 µM
10 | O=CNc1ccccc1 [Formanilide] | > 90 µM
11 | Clc1ccc(C(Cl)(Cl)Cl)cn1 [2-Chloro-5-trichloromethylpyridine] | > 90 µM
12 | COc1cccc(N(C)C(=S)Oc2ccc3c(c2)CCCC3)n1 [Liranaftate] | > 50 µM
13 | CCCCCC=O [Hexanal] | > 100 µM
14 | CC(C)=C1CC[C@@H](C)CC1=O [R-(+)-Pulegone] | > 90 µM
15 | CCc1cn([C@H]2C[C@H](O)[C@@H](CO)O2)c(=O)[nH]c1=O [Edoxudine] | > 50 µM
16 | O=[N+]([O-])c1ccc(CBr)cc1 [4-Nitrobenzylbromide] | > 100 µM
17 | C=CC(=O)OCC1CC2CC1C1CCC(COC(=O)C=C)C21 (stereo not shown) [Octahydro-1H-4,7-methanoindene-1,5-diyldimethanediyl bisprop-2-enoate] | 75.1 µM
18 | NC1=NCC2c3ccccc3Cc3ccccc3N12 (stereo not shown) [Epinastine hydrochloride] | > 50 µM
19 | CCO[Si](C)(CCCOCC1CO1)OCC (stereo not shown) [Diethoxy(methyl)[3-(oxiran-2-ylmethoxy)propyl]silane] | > 90 µM
20 | CC(=O)OC(C)C [Isopropyl acetate] | > 90 µM
21 | O=C(OCc1ccccc1)C(=O)OCc1ccccc1 [Dibenzyl oxalate] | > 90 µM

Row | SMILES | CC50 at 24 h
22 | C/C=C/c1ccc(OCC)c(O)c1 [trans-2-Ethoxy-5-(1-propenyl)phenol] | > 90 µM
23 | C/C(=C(\CCO)SS/C(CCO)=C(/C)N(C=O)Cc1cnc(C)nc1N)N(C=O)Cc1cnc(C)nc1N [Thiamine disulfide] | > 50 µM
24 | CC(C)(C#N)c1cc(Cn2cncn2)cc(C(C)(C)C#N)c1 [Anastrozole] | > 30 µM
25 | CCCCOCCOC(=O)COc1ccc(Cl)cc1Cl [2,4-D-Butotyl] | > 90 µM
26 | CC(C)c1ccc(S(=O)(=O)O)cc1 [4-Isopropylbenzenesulfonic acid] | > 90 µM
27 | C[C@H]1O[C@@H](O[C@H]2[C@@H](O)C[C@H](O[C@H]3[C@@H](O)C[C@H](O[C@H]4CC[C@@]5(C)[C@H](CC[C@@H]6[C@@H]5C[C@@H](O)[C@]5(C)[C@@H](C7=CC(=O)OC7)CC[C@]65O)C4)O[C@@H]3C)O[C@@H]2C)C[C@H](O)[C@@H]1O [Digoxin] | > 90 µM
28 | COc1cc2c(cc1OC)CC(=O)N(CCCN(C)C[C@H]1Cc3cc(OC)c(OC)cc31)CC2 [Ivabradine hydrochloride] | > 50 µM
29 | O=C(/C=C/c1ccccc1)NCCO [Idrocilamide] | > 50 µM
30 | Cc1cc(C)n(CO)n1 [(3,5-Dimethyl-1H-pyrazol-1-yl)methanol] | > 90 µM
31 | CNC(=O)c1c(I)c(C(=O)NCC(=O)Nc2c(I)c(C(=O)O)c(I)c(C(=O)NCCO)c2I)c(I)c(N(C)C(C)=O)c1I [Ioxaglic acid] | > 50 µM
32 | CCCCCCCCCCC=CC#N [Tridec-2-enenitrile] | > 90 µM
33 | Cc1ccc(Cl)cc1Cl [2,4-Dichlorotoluene] | > 90 µM
34 | CNC(=O)Oc1cccc2ccccc12 [Carbaryl] | > 90 µM
35 | CN1CCN(C(=O)C2CCCCC2)CC1 [Pexantel] | > 50 µM
36 | COc1c(C)c2c(c(O)c1C/C=C(\C)CCC(=O)O)C(=O)OC2 [Mycophenolic acid] | 1.55 µM
37 | ClC/C=C/CCl [(2E)-1,4-Dichlorobut-2-ene] | > 90 µM
38 | COc1cc(/C=C/C(=O)N2CCN(CC(=O)N3CCCC3)CC2)cc(OC)c1OC [Cinepazide maleate] | > 50 µM
39 | [H]/N=C(/N)N[C@H]1[C@H](O)[C@@H](O)[C@H](O[C@@H]2O[C@@H](C)[C@](O)(C=O)[C@H]2O[C@@H]2O[C@@H](CO)[C@H](O)[C@@H](O)[C@@H]2NC)[C@@H](N/C(N)=N\[H])[C@@H]1O [Streptomycin sulfate (2:3)] | > 50 µM
40 | CC(C)c1ccc2c(c1)CC[C@H]1[C@](C)(CN)CCC[C@]21C [Dehydroabietylamine acetate] | 10.1 µM
41 | CNC(=O)C(c1ccccc1)c1ccccc1 [N-methyl-alpha-phenylbenzeneacetamide] | > 90 µM
42 | Nc1nc(N)nc(-c2cc(Cl)ccc2Cl)n1 [Irsogladine maleate] | > 50 µM

Row | SMILES | CC50 at 24 h
43 | CCN(Cc1ccccc1)c1ccccc1 [N-Ethyl-N-phenyl benzylamine] | > 90 µM
44 | CCCCCCCCCCCCCCCC(=O)O [Hexadecanoic acid] | > 90 µM
45 | CCCCOC(=O)[C@@H](C)Oc1ccc(Oc2ccc(C(F)(F)F)cn2)cc1 [Fluazifop-P-butyl] | > 90 µM
46 | OC1CCCCC1 [Cyclohexanol] | > 100 µM
47 | Cc1ccc(C(=O)O)cc1[N+](=O)[O-] [4-Methyl-3-nitrobenzoic acid] | > 90 µM
48 | CCn1nc(Cc2ccccc2)cc1C1CCN(C[C@H]2C[C@H](N(C)[C@@H](C(=O)O)C(C)C)C[C@@H]2c2cccc(F)c2)CC1 [MK-578] | 66.4 µM
49 | CCCCOC(=O)CCCCCCCCC(=O)OCCCC [Dibutyl decanedioate] | > 90 µM
50 | O=S(=O)(O)c1cc(O)c(O)c(S(=O)(=O)O)c1 [Tiron] | > 90 µM
51 | CC(C)[C@@H]1CC[C@@H](C)C[C@H]1O [Menthol] | > 90 µM
52 | CCCCCCCCOc1ccccc1C(=O)Nc1ccc(C(=O)OCC[N+](C)(CC)CC)cc1 [Otilonium bromide] | 22.8 µM
53 | N[C@@H](Cc1c[nH]c2ccc(O)cc12)C(=O)O [L-5-Hydroxytryptophan] | > 90 µM
54 | CC1=C(C(=O)O)N2C(=O)[C@@H](NC(=O)[C@H](N)c3ccc(O)cc3)[C@H]2SC1 [Cefadroxil] | > 20 µM
55 | CCOC(=O)c1cc(-c2ccccc2)nc2ccc(C)cc12 [Neocinchophen] | 44.6 µM
56 | CCOc1cc(OCC)c(C(C)=O)cc1OCC [2,4,5-Triethoxyacetophenone] | 35.3 µM
57 | Cc1ccc(Cl)c(O)c1 [2-Chloro-5-methylphenol] | > 50 µM
58 | O[C@@H]1CO[C@H]2[C@@H]1OC[C@@H]2O [Isosorbide] | > 50 µM
59 | CCCCCCCCO[C@@H]1O[C@H](CO)[C@@H](O)[C@H](O)[C@H]1O [Octyl beta-D-glucopyranoside] | > 90 µM
60 | COC(=O)C1=C(C)NC(C)=C(C(=O)O[C@@H]2CCCN(Cc3ccccc3)C2)[C@@H]1c1cccc([N+](=O)[O-])c1 (racemic) [rac Benidipine hydrochloride] | 25.5 µM
61 | CCC(C(=O)OCCOCCN(CC)CC)c1ccccc1 (stereo not shown) [Butamirate citrate] | > 50 µM
62 | CC(C)CCCCCCN [Isononanamine] | > 90 µM
63 | O=C(CO)[C@@H](O)[C@H](O)[C@@H](O)CO [L-(-)-Sorbose] | > 50 µM

same assay, conditions: rat, gh3-tre-luc cells, AC50 (uM) modified / 1000, Tox21_110001=Tox21_111979; viability, 1 nM T3 present, 24 h

Row | SMILES | CC50 at 24 h
64 | CCN(CC)CCOC(=O)C(C)(c1ccccc1)c1ccccc1 [Aprofene] | 15.4 µM

same assay, conditions: rat, gh3-tre-luc cells, AC50 (uM) modified / 1000, Tox21_110001=Tox21_112860; viability, 1 nM T3 present, 24 h

Row | SMILES | CC50 at 24 h
65 | CCC(=O)O[C@](Cc1ccccc1)(c1ccccc1)[C@H](C)CN(C)C [(2S,3R)-(+)-4-(Dimethylamino)-3-methyl-1,2-diphenyl-2-butanol propionate hydrochloride] | 30.1 µM

same assay, conditions: rat, gh3-tre-luc cells, AC50 (uM) modified / 1000, Tox21_110001=Tox21_200526; viability, 1 nM T3 present, 24 h

Row | SMILES | CC50 at 24 h
66 | CCCCCCC#N [Heptanenitrile] | > 90 µM

same assay, conditions: rat, gh3-tre-luc cells, AC50 (uM) modified / 1000, Tox21_110001=Tox21_200822; viability, 1 nM T3 present, 24 h

Row | SMILES | CC50 at 24 h
67 | C[N+](=O)[O-] [Nitromethane] | > 90 µM

same assay, conditions: rat, gh3-tre-luc cells, AC50 (uM) modified / 1000, Tox21_110001=Tox21_201141; viability, 1 nM T3 present, 24 h

Row | SMILES | CC50 at 24 h
68 | ClC(Cl)C(Cl)(Cl)Cl [Pentachloroethane] | > 90 µM

same assay, conditions: rat, gh3-tre-luc cells, AC50 (uM) modified / 1000, Tox21_110001=Tox21_201798; viability, 1 nM T3 present, 24 h

Row | SMILES | CC50 at 24 h
69 | O=P(OCC(Br)CBr)(OCC(Br)CBr)OCC(Br)CBr (stereo not shown) [Tris(2,3-dibromopropyl) phosphate] | 30.4 µM

same assay, conditions: rat, gh3-tre-luc cells, AC50 (uM) modified / 1000, Tox21_110001=Tox21_202072; viability, 1 nM T3 present, 24 h

Row | SMILES | CC50 at 24 h
70 | ClC1=C(Cl)[C@]2(Cl)[C@H]3[C@H]([C@@H]4C=C[C@H]3C4)[C@@]1(Cl)C2(Cl)Cl [Aldrin] | 51.6 µM

same assay, conditions: rat, gh3-tre-luc cells, AC50 (uM) modified / 1000, Tox21_110001=Tox21_202291; viability, 1 nM T3 present, 24 h

Row | SMILES | CC50 at 24 h
71 | O=[N+]([O-])c1ccc(Cl)cc1 [1-Chloro-4-nitrobenzene] | > 90 µM

same assay, conditions: rat, gh3-tre-luc cells, AC50 (uM) modified / 1000, Tox21_110001=Tox21_300172; viability, 1 nM T3 present, 24 h

Row | SMILES | CC50 at 24 h
72 | ClC1=C(Cl)[C@]2(Cl)[C@H]3[C@H]([C@@H]4C=C[C@H]3C4)[C@@]1(Cl)C2(Cl)Cl [Aldrin] | 46.1 µM

same assay, conditions: rat, gh3-tre-luc cells, AC50 (uM) modified / 1000, Tox21_110001=Tox21_301105; viability, 1 nM T3 present, 24 h

Row | SMILES | CC50 at 24 h
73 | Nc1nc(N)nc(Cl)n1 [2-Chloro-4,6-diamino-1,3,5-triazine] | > 90 µM

same assay, conditions: rat, gh3-tre-luc cells, AC50 (uM) modified / 1000, Tox21_110001=Tox21_301203; viability, 1 nM T3 present, 24 h

Row | SMILES | CC50 at 24 h
74 | C=CCc1ccc(OC(=O)Cc2ccccc2)c(OC)c1 [Eugenyl phenylacetate] | > 90 µM

same assay, conditions: rat, gh3-tre-luc cells, AC50 (uM) modified / 1000, Tox21_110001=Tox21_302967; viability, 1 nM T3 present, 24 h

Row | SMILES | CC50 at 24 h
75 | O=P(OCC(Br)CBr)(OCC(Br)CBr)OCC(Br)CBr (stereo not shown) [Tris(2,3-dibromopropyl) phosphate] | 54.5 µM

same assay, conditions: rat, gh3-tre-luc cells, AC50 (uM) modified / 1000, Tox21_110001=Tox21_400021; viability, 1 nM T3 present, 24 h

Row | SMILES | CC50 at 24 h
76 | Nc1c(Cl)c(Cl)c(Cl)c(Cl)c1Cl [Pentachloroaniline] | > 90 µM
